According to the NIST ThermoML archive (doi:10.1016/j.jct.2006.05.008):

Assay: molar heat capacity at constant pressure
Settings: 101.33 kPa

CCC[n+]1ccn(C)c1.[Br-] [1-methyl-3-propylimidazolium bromide]
Settings	molar heat capacity at constant pressure [J/K/mol]
270.71 K, Metastable crystal, Small (less than 1 g) adiabatic calorimetry	224.7
270.82 K, Metastable crystal, Small (less than 1 g) adiabatic calorimetry	229.03
271.87 K, Liquid, Small (less than 1 g) adiabatic calorimetry	272.35
272 K, Crystal, Vacuum adiabatic calorimetry	235.92
272.05 K, Liquid, Small (less than 1 g) adiabatic calorimetry	273.02
273.43 K, Metastable crystal, Small (less than 1 g) adiabatic calorimetry	235.43
273.97 K, Liquid, Small (less than 1 g) adiabatic calorimetry	272.86
274.08 K, Crystal, Vacuum adiabatic calorimetry	241.07
274.59 K, Liquid, Small (less than 1 g) adiabatic calorimetry	273.93
275.18 K, Metastable crystal, Small (less than 1 g) adiabatic calorimetry	235.92
276.07 K, Liquid, Small (less than 1 g) adiabatic calorimetry	273.68
276.15 K, Crystal, Vacuum adiabatic calorimetry	246.77
276.27 K, Metastable crystal, Small (less than 1 g) adiabatic calorimetry	241.56
277.13 K, Liquid, Small (less than 1 g) adiabatic calorimetry	274.62
277.85 K, Crystal, Vacuum adiabatic calorimetry	253.97
278.17 K, Liquid, Small (less than 1 g) adiabatic calorimetry	274.27
278.22 K, Crystal, Vacuum adiabatic calorimetry	253.72
279.07 K, Metastable crystal, Small (less than 1 g) adiabatic calorimetry	249.25
279.67 K, Liquid, Small (less than 1 g) adiabatic calorimetry	275.3
280.27 K, Liquid, Small (less than 1 g) adiabatic calorimetry	274.91
281.68 K, Metastable crystal, Small (less than 1 g) adiabatic calorimetry	255.47
281.81 K, Metastable crystal, Small (less than 1 g) adiabatic calorimetry	258.32
282.22 K, Liquid, Small (less than 1 g) adiabatic calorimetry	276.12
282.37 K, Liquid, Small (less than 1 g) adiabatic calorimetry	275.55
284.47 K, Liquid, Small (less than 1 g) adiabatic calorimetry	276.33
284.5 K, Metastable crystal, Small (less than 1 g) adiabatic calorimetry	269.64
284.76 K, Liquid, Small (less than 1 g) adiabatic calorimetry	277
286.57 K, Liquid, Small (less than 1 g) adiabatic calorimetry	276.88
287.11 K, Metastable crystal, Small (less than 1 g) adiabatic calorimetry	284.18
287.31 K, Liquid, Small (less than 1 g) adiabatic calorimetry	277.78
287.83 K, Metastable crystal, Small (less than 1 g) adiabatic calorimetry	291.75
288.67 K, Liquid, Small (less than 1 g) adiabatic calorimetry	277.6
289.86 K, Liquid, Small (less than 1 g) adiabatic calorimetry	278.56
290.76 K, Liquid, Small (less than 1 g) adiabatic calorimetry	278.25
292.42 K, Liquid, Small (less than 1 g) adiabatic calorimetry	279.52
292.85 K, Liquid, Small (less than 1 g) adiabatic calorimetry	278.99
294.97 K, Liquid, Small (less than 1 g) adiabatic calorimetry	280.39
297.52 K, Liquid, Small (less than 1 g) adiabatic calorimetry	281.17
300.09 K, Liquid, Small (less than 1 g) adiabatic calorimetry	282.13
302.65 K, Liquid, Small (less than 1 g) adiabatic calorimetry	282.97
305.21 K, Liquid, Small (less than 1 g) adiabatic calorimetry	283.79
307.77 K, Liquid, Small (less than 1 g) adiabatic calorimetry	284.73
310.34 K, Liquid, Small (less than 1 g) adiabatic calorimetry	285.68
312.44 K, Liquid, Small (less than 1 g) adiabatic calorimetry	286.13
315.01 K, Liquid, Small (less than 1 g) adiabatic calorimetry	287.07
317.56 K, Liquid, Small (less than 1 g) adiabatic calorimetry	287.97
320.1 K, Liquid, Small (less than 1 g) adiabatic calorimetry	288.9
322.63 K, Liquid, Small (less than 1 g) adiabatic calorimetry	289.74
325.17 K, Liquid, Small (less than 1 g) adiabatic calorimetry	290.68
327.71 K, Liquid, Small (less than 1 g) adiabatic calorimetry	291.56
330.24 K, Liquid, Small (less than 1 g) adiabatic calorimetry	292.55
332.78 K, Liquid, Small (less than 1 g) adiabatic calorimetry	293.41
335.3 K, Liquid, Small (less than 1 g) adiabatic calorimetry	294.48
337.83 K, Liquid, Small (less than 1 g) adiabatic calorimetry	295.38
340.36 K, Liquid, Small (less than 1 g) adiabatic calorimetry	295.97
342.88 K, Liquid, Small (less than 1 g) adiabatic calorimetry	296.86
345.4 K, Liquid, Small (less than 1 g) adiabatic calorimetry	297.86
347.92 K, Liquid, Small (less than 1 g) adiabatic calorimetry	298.8
350.44 K, Liquid, Small (less than 1 g) adiabatic calorimetry	299.62
352.95 K, Liquid, Small (less than 1 g) adiabatic calorimetry	300.4
355.46 K, Liquid, Small (less than 1 g) adiabatic calorimetry	301.37
357.97 K, Liquid, Small (less than 1 g) adiabatic calorimetry	302.27
359.15 K, Liquid, Small (less than 1 g) adiabatic calorimetry	302.7
360.47 K, Liquid, Small (less than 1 g) adiabatic calorimetry	303.23
361.69 K, Liquid, Small (less than 1 g) adiabatic calorimetry	304.73
362.97 K, Liquid, Small (less than 1 g) adiabatic calorimetry	304.73
364.23 K, Liquid, Small (less than 1 g) adiabatic calorimetry	305.78
366.73 K, Liquid, Small (less than 1 g) adiabatic calorimetry	305.51
